# From ChEMBL document CHEMBL1156397, “A benzylisoquinoline alkaloid from Doryphora sassafras” (J Nat Prod, 2001)
# Biological target: Kappa-type opioid receptor (Cavia porcellus) (UniProt P41144)
# Experiment: Displacement of [3H]U69593 from kappa opioid receptor in guinea pig brain membrane at 100 uM by Betaplate liquid scintillation counter
# Type: cell membranes
# Sequence of Kappa-type opioid receptor (Cavia porcellus) (P41144 whole entry): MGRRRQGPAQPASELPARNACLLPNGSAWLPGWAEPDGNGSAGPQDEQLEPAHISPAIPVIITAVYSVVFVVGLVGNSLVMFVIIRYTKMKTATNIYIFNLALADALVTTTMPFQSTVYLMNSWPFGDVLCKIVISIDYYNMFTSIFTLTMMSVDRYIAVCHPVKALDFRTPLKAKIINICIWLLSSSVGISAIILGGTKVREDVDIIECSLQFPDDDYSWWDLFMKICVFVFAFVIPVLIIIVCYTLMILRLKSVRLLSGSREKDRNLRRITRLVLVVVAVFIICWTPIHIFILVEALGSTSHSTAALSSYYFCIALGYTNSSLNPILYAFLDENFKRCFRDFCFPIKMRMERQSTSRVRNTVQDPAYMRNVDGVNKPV
smiles,measurement,value
COc1ccc(Cc2c3cc4c(cc3cc[n+]2C)OCO4)cc1,Activity,50%
